According to US20080233080A1, “Inulins, Levans, Fructans And Other Smaller-Than-Cellulose Termite Feeding Attractants, And Termite” (priority 2004, published 2008):
“And” between values parts separate entries of the source, which are not always exact repeats. Equal entries are not always repeated. “Also recorded” adds a separate entry of the source.

Key:
[1] = tested on: Reticulitermes spp.; test: Diet consumption by groups of termites in no-choice and choice bioassay arenas; format: in vivo
Protocol: Subterranean Termite Collection. Five wild populations of Reticulitermes spp. were collected from fallen wood in forested areas of Fairfax County (N38° 43.29′ and W77° 30.93′), Montgomery County (N37° 12.46′ and W80° 24.47′), Rockbridge County (N37° 48.00′ and W 79° 25.00′), and Roanoke County (N37° 19.53′ and W79° 58.53′), Virginia. Termites were harvested by placing the infested wood into large storage bins (70 L; Sterlite®; Sterlite Corporation, Townsend, Mass.) on top of damp, recycled paper towels (Acclaim®; Fort James Corporation, Deerfield, Ill.). As the wood dried out the termites moved into the moist paper towels. The infested paper towels were then transferred to plastic storage containers (11.3 L; Rubbermaid, Wooster, Ohio) containing vermiculite (500 g; moistened 150% by weight (Lenz M., T. L. Amburgey, D. Zi-Rong, H. Kuhne, J. K. Mauldin, A. F. Preston, and M. Westcott, 1987, Interlaboratory studies on termite-wood decay fungi associations: I. Determination of maintenance conditions for several species of termites (Isoptera: Mastotermitidae, Termopsidae, Rhinotermitidae), Sociobiology, 13:1-56; Cherokee Vermiculite Horticultural Fine Cherokee Products, Jefferson City, Tenn.). Subterannean termite containers were stored in complete darkness (˜21° C. and 97% RH) until needed for testing. Subterranean termites were tested within one month after being collected from the field.
Termite Diet Preparation. Recycled brown paper toweling (Acclaim®) was cut into squares (35×35 mm) and used as a diet substrate. The diet substrates were placed into glass Pyrex Petri dishes (100×20 mm; Corning Glass Works, Corning, N.Y.) and dried overnight in a single wall, gravity convection, laboratory oven (60° C.; Blue M SW-17TA; Blue M Electric Company; Blue Island, Ill.). After 24 hours, each diet substrate was taken out of the oven, numbered in the corner with a pencil and weighed on a balance (Mettler AE163; Lab Tech, Inc.) to the nearest 0.1 mg. After weighing, certain diets were treated with radiochemicals. Because hexaflumuron cannot be stored at temperatures greater than 50° C., radioisotopes were only applied after the diets were oven dried. The weight of the isotopes on the diet after air drying was determined to be negligible.
Control Diets. Control diets were treated with the visual marker only. The visual marker was formulated by dissolving Nile Blue-A in acetone and applying a 150 μl aliquot of dye solution to each diet substrate. The final Nile Blue-A concentration on the diet was 0.1%.
^14C-hexaflumuron Diets. A stock solution of technical grade hexaflumuron, ^14C-hexaflumuron (0.5% total hexaflumuron concentration) and 0.1% Nile Blue-A was formulated in acetone. An aliquot (150 μl) of the solution was applied to each diet substrate so that each diet contained 0.27 μCi of the ^14C-hexaflumuron.
^3H-inulin Diets. A stock solution of the ^3H-inulin and 0.1% Nile Blue-A (1.95 mg) was formulated in acetone. An aliquot (150 μl) of the solution was applied to each diet substrate so that each diet contained […] of the ^3H-inulin. ^3H has a lower energy spectrum than ^14C, so ˜8× more ^3H-inulin was added to the diets than ^14C-hexaflumuron to facilitate radioisotope quantification process after termite consumption.
Bioassay Arenas: Consumption bioassays were performed in choice and non-choice bioassay arenas. Arena tests were used to evaluate termite consumption of hexaflumuron treated bait alone and in the presence of a competing food source.
No-Choice Bioassay. No-choice bioassay arenas were assembled by connecting two Petri dishes with Tygon tubing (inner diameter 3.2 mm, outer diameter 6.4 mm). Petri dishes were washed 4 times in tap water to eliminate static electricity. Tygon tubing was soaked in tap water for 3 hours and allowed to air dry prior to use. One Petri dish (95 mm×15 mm; Fisher Scientific) served as a termite housing chamber and was filled with moist sand (˜45 g). […]

[2] = tested on: Reticulitermes spp.; test: Diet consumption by individual termites, radioisotope quantification by scintillation counting; format: in vivo; settings: for feeding preference of individual termites: choice test 14C-hexaflumuron and 3H-inulin
Protocol: Diet Consumption by Individual Termites. After mortality was recorded for a particular treatment/day, 20 surviving termites were randomly selected from each radioactive treatment arena for isotope analysis. Random selection was not limited to dyed termites. Non-dyed termites were also selected. The termites were thoroughly rinsed with distilled water three times to remove any radioactivity from the outside of the body. They were next placed on paper towels to remove excess water. Each rinsed, dried termite was placed into a separate microcentrifuge tube (1.5 ml; Fisher Brand), and the body was homogenized in 200 μl of distilled water. The homogenate was transferred into a glass scintillation vial (20 ml; Kimble Glass, Vineland, N.J.). Microcentrifuge tubes were rinsed three times with 200 μl of distilled water per rinse. Each rinse was added to the homogenate in the scintillation vial. An aliquot of scintillation cocktail (8 ml; Scintiverse® BD; Fisher Scientific, Fair Lawn, N.J.) was then added to each vial.
The amount of radioactivity contained within each sample was quantified by using a scintillation counter (Beckman Coulter, Inc.™ LS 6500, Fullerton, Calif.). The individual termite samples contained very low dpm counts. Therefore, sample vials containing only a single isotope (from no-choice tests) were counted for 10 minutes. However, sample vials that potentially could contain dual isotopes (from choice-tests) were counted for 20 minutes to improve the accuracy of the counts.
Background Radioactivity Measurements. After termite mortality had been recorded, 2 termites were selected at random from each no-choice, control arena. These termites were rinsed, homogenized, and prepared for scintillation counting as previously described. Control termites were counted in the scintillation counter for 10 minutes to record background radioactivity. Background radioactivity was measured for each treatment group (choice and no-choice) at both 2 d and 5 d. Background measurements also accounted for any quenching that occurred due to the termite body fragments occluding light transmission in the scintillation counter. Before the test data was analyzed, background radioactivity counts for a particular sample was subtracted from the sample's spectral peak (Traniello, J. F. A., R. B. Rosengaus and C. K. Levy, 1985, Single and double isotope labeling of social insect colonies, Entomol. Exp. Appl., 38:87-92; Suarez, M. E. and B. L. Thorne, 2000, Effects of food type and foraging distance on trophallaxis in the subterranean termite Reticulitermes virginicus (Isoptera: Rhinotermitidae), Sociobiology, 35: 487-498).
Radiolabel Counting using Dual Label Technique. Specialized procedures were required for analysis of radiolabeled samples containing both ^14C and ^3H. Due to the potential low/high counts and spillover of ^14C and ^3H in the counting window, a series of dilutions was made from extracted diets (with known amounts of activity) to correct for spillover. The range of activity values for ^14C and ^3H and a combination of the two isotopes within the samples was determined. Spillover correction curves were generated for the range of sample data and used to correct those samples where high levels of both ^14C and ^3H occurred and spillover was evident.
Quantification of radioactive isotopes from individual termite cadavers was used to determine how much a single termite consumed of ^14C-hexaflumuron diet in the presence of a competing food source. Mean consumption of ^14C-hexaflumuron diet in the no-choice test was compare with ^14C-hexaflumuron consumption in the choice test using GLM ANOVA with Least Squares adjustment for multiple comparisons of mean values. For all tests data was analyzed separately for 2 d and 5 d.
Finally, mean consumption of the two radioisotopes, ^14C-hexaflumuron and ^3H-inulin, in the choice tests were compared to determine whether termites preferred one diet over another. […]

[3] = tested on: eastern subterranean termites; settings: in vivo; cited from earlier work
[4] = tested on: subterranean termites; settings: subterranean termites fed hexaflumuron bait; cited from earlier work
[5] = tested on: Reticulitermes sp.; test: Inulin treated vs untreated paper towel diets placed on yellow pine termite harborages; format: in vivo; settings: average of 7 d
Protocol: Subterranean termites, Reticulitermes sp. were reared in the laboratory in Nunc dishes containing strips of yellow pine wood as a food resource and termite harborage. Inulin treated and untreated paper towel diets were weighed and then placed side by side on the top of the termite harborages (strips of yellow pine). Termites were allowed to forage for an average of 7 d. After the test period, the diets were removed, weighed and consumption of each towel diet was recorded as a percentage of total consumption of both paper towel diets.

[6] = choice test hexaflumuron and inulin diets, 2 d
[7] = choice test hexaflumuron and inulin diets, 5 d
[8] = choice test 14C-hexaflumuron and 3H-inulin diets, 5 d
[9] = choice test hexaflumuron and inulin diets, 5 d, listed as inulin

For O=C(NC(=O)c1c(F)cccc1F)Nc1cc(Cl)c(OC(F)(F)C(F)F)c(Cl)c1 [Hexaflumuron, N-(((3,5-dichloro-4-(1,1,2,2-tetrafluoroethoxy)phenyl)-amino)carbonyl)-2,6-difluorobenzamide], the “Hexaflumuron Consumption (mg) (Mean ± SEM)” value ([1]; choice test hexaflumuron and control diet, 2 d) was 1.6 ± 0.9a mg, the “Hexaflumuron Consumption (mg) (Mean ± SEM)” value ([1]; choice test hexaflumuron and control diet, 2 d, listed as hexaflumuron) was 1.6 mg and the “Hexaflumuron Consumption (mg) (Mean ± SEM)” value ([1]; choice test hexaflumuron and control diet, 5 d) was 3.2 ± 1.4a mg. The “Hexaflumuron Consumption (mg) (Mean ± SEM)” value ([1]; choice test hexaflumuron and control diet, 5 d, listed as hexaflumuron) was 3.2 mg, the “Consumption (mg) (Mean ± SEM)” value [1, 6] was 1.0 ± 0.8a mg and the “Consumption (mg) (Mean ± SEM)” value ([1]; choice test hexaflumuron and inulin diets, 2 d, listed as hexaflumuron) was 1.0 mg. For the same compound, the “Consumption (mg) (Mean ± SEM)” value [1, 7] was 0.2 ± 0.1b mg and 0.2 ± 0.1 a mg, the “Consumption (mg) (Mean ± SEM)” value ([1]; choice test hexaflumuron and inulin diets, 5 d, listed as 14C-hexaflumuron) was 0.2 mg and the “Consumption (mg) (Mean ± SEM)” value ([1]; choice test hexaflumuron and inulin diets, 5 d, listed as hexaflumuron) was 0.2 mg. For the same compound, the “Hexaflumuron Consumption (mg) (Mean ± SEM)” value ([1]; no-choice test, 2 d, groups of 100 termite workers, 0.5% hexaflumuron diet) was 3.0 ± 0.7a mg, the “Hexaflumuron Consumption (mg) (Mean ± SEM)” value ([1]; no-choice test, 2 d, groups of 100 termite workers, 0.5% hexaflumuron diet, listed as 14C-hexaflumuron) was 3 mg and the “Hexaflumuron Consumption (mg) (Mean ± SEM)” value ([1]; no-choice test, 2 d, groups of 100 termite workers, 0.5% hexaflumuron diet, listed as hexaflumuron) was 3.0 mg. The “Hexaflumuron Consumption (mg) (Mean ± SEM)” value ([1]; no-choice test, 5 d, groups of 100 termite workers, 0.5% hexaflumuron diet) was 11.4 ± 3.9a mg, the “Hexaflumuron Consumption (mg) (Mean ± SEM)” value ([1]; no-choice test, 5 d, groups of 100 termite workers, 0.5% hexaflumuron diet, listed as 14C-hexaflumuron) was 11.4 mg and the “Hexaflumuron Consumption (mg) (Mean ± SEM)” value ([1]; no-choice test, 5 d, groups of 100 termite workers, 0.5% hexaflumuron diet, listed as hexaflumuron) was 11.4 mg. The “consumption by an individual termite” value ([2]; choice test 14C-hexaflumuron and 3H-inulin diets, 2 d) was 7.3 µg, the “consumption by an individual termite” value [2, 8] was 2.3 µg and the “feeding preference of individual termites” value ([2]; 2 d) was “did not prefer either diet”. For the same compound, the “consumption by an individual termite” value ([2]; choice test competing with control diet, 2 d) was 14.5 µg, the “consumption by an individual termite” value ([2]; choice test in presence of control diet, 5 d) was 19.3 µg and the “consumption by an individual termite” value ([2]; no-choice test, 2 d) was 38.9 µg. The “consumption by an individual termite” value ([2]; no-choice test, 5 d) was 56.9 µg, the “mean half life within the body of a termite” value [3] was about 220 h and the LT50 [4] was about 26.6 days. The onset of toxicity [4] was “approximately 15 d”.

With inulin the “Consumption (mg) (Mean ± SEM)” value [1, 6] was 2.0 ± 0.6 mg, the “Consumption (mg) (Mean ± SEM)” value [1, 7] was 6.0 ± 1.3 mg and 6.0 ± 1.3 b mg and the “Consumption (mg) (Mean ± SEM)” value [1, 9] was 6.0 mg. For the same compound, the “feeding preference of termite populations (consumption significantly greater than 50% of total)” value [1, 9] was “preference for the inulin diet was indicated; also recorded: preference for the inulin treated bait”, the “consumption of inulin treated bait relative to Hexaflumuron treated bait” value ([1]; choice test, 5 d, Table B) was 30 times and the “consumption by an individual termite” value [2, 8] was 19.4 µg. The “feeding preference of individual termites” value ([2]; 2 d) was “did not prefer either diet”, the “feeding preference of individual termites” value ([2]; 5 d, listed as 3H-inulin) was “significant preference” and the “feeding preference of individual termites” value ([2]; 5 d, listed as inulin) was “significant preference for the inulin treated bait”. The “preferential consumption versus untreated towels and yellow pine wood” value [5] was “preferentially consumed inulin treated paper towels over untreated towels and yellow pine wood” and the “Termite Consumption Mean % ± SEM (percentage of total consumption of both paper towel diets)” value ([5]; choice, in presence of yellow pine) was 64.7 ± 4.5%.
